Measurements as given in ChEMBL document CHEMBL1142394, “Morphinane alkaloid dimers from Sinomenium acutum” (J Nat Prod, 2008).

Assays:
HeLa = assay: Cytotoxicity against human HeLa cells by MTT assay; format: functional, cell-based
A549 = assay: Cytotoxicity against human A549 cells by MTT assay; format: functional, cell-based

| Compound | IC50 (HeLa) [µM] | IC50 (A549) [µM] |
| --- | --- | --- |
| COC1=C[C@@H]2[C@@H]3Cc4c(-c5cc(OC)c(O)c6c5C[C@H]5[C@H]7C=C(OC)C(=O)C[C@@]67CCN5C)cc(OC)c(O)c4[C@]2(CCN3C)CC1=O | 70.7 | 71.8 |
| COC1=C[C@@H]2[C@@H]3Cc4cc(-c5cc6c(c(O)c5OC)[C@@]57CCN(C)[C@@H](C6)[C@H]5C=C(OC)C(=O)C7)c(OC)c(O)c4[C@]2(CCN3C)CC1=O | 71.7 | 65.5 |
